Read-outs that look alike come from different tables or passages of the source.
Experiments:
[1] = Ferric reducing antioxidant power (FRAP) assay
Protocol: The FRAP assay was measured using the procedure previously described.

[2] = DPPH radical scavenging activity; conditions: n = 3
Protocol: This assay was determined using the procedure previously reported.

[3] = ABTS radical scavenging assay; conditions: n = 3
Protocol: This assay was assessed using the procedure previously described.

[4] = molecular target: acetylcholinesterase (AChE) (Electrophorus electricus, UniProt O42275); experiment: biochemical
Sequence of acetylcholinesterase (AChE) (O42275 24-633): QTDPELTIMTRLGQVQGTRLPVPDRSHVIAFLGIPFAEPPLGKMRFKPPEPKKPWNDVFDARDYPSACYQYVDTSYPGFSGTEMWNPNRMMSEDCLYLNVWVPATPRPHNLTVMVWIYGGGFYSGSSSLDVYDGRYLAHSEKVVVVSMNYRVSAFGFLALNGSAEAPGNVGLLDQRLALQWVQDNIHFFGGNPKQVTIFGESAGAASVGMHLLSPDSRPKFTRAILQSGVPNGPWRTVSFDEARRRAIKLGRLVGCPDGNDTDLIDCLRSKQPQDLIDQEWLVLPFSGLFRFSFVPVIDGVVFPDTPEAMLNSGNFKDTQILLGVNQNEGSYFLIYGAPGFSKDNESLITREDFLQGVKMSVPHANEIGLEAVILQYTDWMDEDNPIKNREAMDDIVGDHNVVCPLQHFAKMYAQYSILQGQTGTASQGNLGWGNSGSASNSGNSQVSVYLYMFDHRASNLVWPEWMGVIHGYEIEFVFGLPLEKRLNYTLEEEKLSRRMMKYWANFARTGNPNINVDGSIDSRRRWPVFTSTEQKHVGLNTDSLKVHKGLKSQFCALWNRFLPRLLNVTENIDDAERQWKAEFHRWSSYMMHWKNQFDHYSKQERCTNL

[5] = Superoxide radical scavenging assay; conditions: isolated compounds (Table 5); n = 3
Protocol: This assay was determined by the method previously described.

[6] = isolated compounds (Table 5), Trolox equivalents
[7] = solvent extracts (Table 2), concentration causing 50% free radical scavenging
[8] = isolated components (Table 6), read-out: IC50 AChE (converted)

Row | Structure (SMILES) | FRAP, TE [1, 6] | FRAP, TE ([1]; solvent extracts (Table 2), millimolar of Trolox equivalents per gram of extract) | SC50 DPPH ([2]; isolated compounds (Table 5)) | SC50 DPPH [2, 7] | SC50 ABTS ([3]; isolated compounds (Table 5)) | SC50 ABTS [3, 7] | IC50 [4, 8] | IC50 ([4]; solvent extracts (Table 3), read-out: IC50 AChE (converted)) | SC50 Superoxide [5] | IC50 [4]
1 | Cc1cc(C(C)(C)C)c(O)c(C(C)(C)C)c1 [BHT, butylated hydroxytoluene, reference compound] | 3997.23 ± 144.35 mM/g | 4257.97 ± 145.90 mM/g | 36.99 ± 4.54 µg/mL | 33.04 ± 2.12 µg/mL | 17.36 ± 3.14 µg/mL | 14.09 ± 0.24 µg/mL | – | – | – | –
2 | O=C(/C=C/c1ccc(O)c(O)c1)O[C@@H]1C[C@](O)(C(=O)O)C[C@@H](O)[C@H]1O [Chlorogenic acid, chlorogenic acid, reference compound] | – | – | – | – | – | – | 182 µM | 188 µM | – | –
3 | Oc1cc(O)c2c(c1)O[C@H](c1ccc(O)c(O)c1)[C@@H](O)C2 [Compound 1, catechin] | 8729.33 ± 424.55 mM/g | – | 10.08 ± 3.09 µg/mL | – | 2.23 ± 0.22 µg/mL | – | 90.8 µM | – | 64.43 ± 7.73 µg/mL | –
4 | O=C(O)c1cc(O)c(O)c(O)c1 [Compound 2, gallic acid] | 28,512.82 ± 43.27 mM/g | – | 2.60 ± 0.67 µg/mL | – | 1.45 ± 0.14 µg/mL | – | – | – | 47.40 ± 3.01 µg/mL | 244 µM
5 | O=c1c(O)c(-c2ccc(O)cc2)oc2cc(O)cc(O)c12 [Compound 3, kaempferol] | 7912.47 ± 220.08 mM/g | – | 12.48 ± 3.01 µg/mL | – | 5.24 ± 0.45 µg/mL | – | – | – | – | –
6 | O=c1c(O)c(-c2ccc(O)c(O)c2)oc2cc(O)cc(O)c12 [Compound 4, quercetin] | 16,038.26 ± 86.89 mM/g | – | 3.36 ± 0.58 µg/mL | – | 3.15 ± 0.49 µg/mL | – | – | – | 31.89 ± 2.03 µg/mL | –
7 | C[C@@H]1CC[C@]2(C(=O)O)CC[C@]3(C)C(=CC[C@@H]4[C@@]5(C)C[C@@H](O)[C@@H](O)C(C)(C)[C@@H]5CC[C@]43C)[C@@H]2[C@]1(C)O [Compound 5, euscaphic acid] | 8.67 ± 3.93 mM/g | – | >400 µg/mL | – | >400 µg/mL | – | 23.8 µM | – | >400 µg/mL | –
8 | Oc1ccc(/C=C/c2cc(O)cc(O)c2)cc1 [Compound 6, resveratrol] | – | – | – | – | – | – | – | – | – | 354 µM
9 | Oc1cc(O)c2c(c1)O[C@H](c1ccc(O)c(O)c1)[C@H](O)C2 [Compound 7, epicatechin] | 13,122.77 ± 182.42 mM/g | – | 2.78 ± 0.25 µg/mL | – | 3.78 ± 0.03 µg/mL | – | 184 µM | – | 41.76 ± 4.20 µg/mL | –

— PMC9312113, “Bioactive Components from Ampelopsis japonica with Antioxidant, Anti-α-Glucosidase, and Antiacetylcholinesterase Activities” (Antioxidants, 2022)
